The nature of data set [1]: Solubility in cosmetic oils. In kind it is physicochemical. The settings on record: percentages refer to weight.
Data set [2] is described as follows: Spectral properties (UV absorption). In kind it is physicochemical. The source says: Spectral Properties: [table]

Experimental findings from US7344706B2, “UV absorber compositions comprising a hydroxyphenyltriazine compound” (Ciba Specialty Chemicals Corp., priority 2002, dated 2008) are described below.

Bounds are passed on as bounds.

Regarding `CCCCC(CC)COc1ccc(-c2nc(-c3ccc(OC)cc3)nc(-c3ccc(OCC(CC)CCCC)cc3OCC(CC)CCCC)n2)c(O)c1` (centres unmarked) [Example 1, 2-((2,4-(2-ethyl-hexyloxy)-phenyl))-4-((2-hydroxy-4-(2-ethyl-hexyloxy)-phenyl))-6-(4-methoxyphenyl)-(1,3,5)-triazine], in data set [1] (solvent di-C12-C13alkylmalates), the “solubility in di-C12-C13alkylmalates” value is greater than 25%. In addition, the solubility in glyceryl-trioctanoate in data set [1] (solvent glyceryl-trioctanoate) is reported as greater than 30%. Besides, in data set [2], the ε is 50443 liters/(mol/cm) and the λmax turned out to be 322 nm. For the same molecule, in data set [2] (in dioxane), the “E [1%, 1 cm] (in dioxane)” value is reported as 681.62.
